Test results from US20220177511A1, “SERIES OF HALOGENATED TETRACYCLIC TRITERPENE DERIVATIVES AND THEIR PREPARATION AND APPLICATION” (SHANGHAI KING-X BIOTECH CO., LTD, priority 2019, published 2022).
Like-named read-outs stand apart in the source and are kept apart here.

Assays:
[1] = Pharmacokinetics of parent HHQ16 after single intragastric administration of compound 2 prodrugs in rats; type: in vivo, rat; details: HHQ16 (parent) measured in rats after single intragastric 10 mg/kg of prodrug (dose converted to HHQ16)
Procedure: 1. The materials and methods for oral absorption test are the same as described in example 44.
The pharmacokinetic parameters of HHQ16 measured after a single intragastric administration of 10 mg/kg of compound 2 prodrug in rats are summarized in Table 2 below.
The half-life was prolonged to varying degrees.

[2] = Solubility test in water and FaSSIF; type: physicochemical; details: 37° C., up to 24 hours
[3] = test system: chronic heart failure mice; assay: Pharmacodynamic comparison of LCZ696 and compound 2 in chronic heart failure mice (echocardiography); type: in vivo
Description: With EF<50%, chronic heart failure mice were selected.
The mice were detected by cardiac ultrasound after 28 days of administration.

[4] = 100 mg/kg, after 28 days of administration
[5] = Positive control 1 (LCZ696, probably 60 mg/kg), Day 0
[6] = Positive control 1 (LCZ696, probably 60 mg/kg), Day 28
[7] = Positive control 2 (LCZ696, probably 100 mg/kg), Day 0
[8] = Positive control 2 (LCZ696, probably 100 mg/kg), Day 28
[9] = chronic heart failure mice (FIG. 9)

2-(((2aR,3R,4S,5aS,5bS,7S,7aR,11aR,12aS)-9,9-difluoro-4-hydroxy-3-((2S,5S)-5-(2-hydroxypropan-2-yl)-2-methyltetrahydrofuran-2-yl)-2a,5a,8,8-tetramethyltetradecahydro-1H,12H-cyclopenta[a]cyclopropa[e]phenanthren-7-yl)oxy)-N-methyl-2-oxoethan-1-aminium Chloride [Compound 2-6]
AUC0-t [1]: 3525 ng·h/mL | Cmax [1]: 433 ng/mL | t1/2 [1]: 4.2 h

3-(((2aR,3R,4S,5aS,5bS,7S,7aR,11aR,12aS)-9,9-difluoro-4-hydroxy-3-((2S,5S)-5-(2-hydroxypropan-2-yl)-2-methyltetrahydrofuran-2-yl)-2a,5a,8,8-tetramethyltetradecahydro-1H,12H-cyclopenta[a]cyclopropa[e]phenanthren-7-yl)oxy)-3-oxopropan-1-aminium Chloride [Compound 2-1]
AUC0-t [1]: 2955 ng·h/mL | Cmax [1]: 455 ng/mL | t1/2 [1]: 3.52 h

CC(C)C(N)C(=O)OC1CC2C3(C)CC(O)C(C4(C)CCC(C(C)(C)O)O4)C3(C)CCC23CC32CCC(F)(F)C(C)(C)C12.Cl (mixture of isomers) [Compound 2-15, 1-(((2aR,3R,4S,5aS,5bS,7S,7aR,11aR,12aS)-9,9-difluoro-4-hydroxy-3-((2S,5S)-5-(2-hydroxypropan-2-yl)-2-methyltetrahydrofuran-2-yl)-2a,5a,8,8-tetramethyltetradecahydro-1H,12H-cyclopenta[a]cyclopropa[e]phenanthren-7-yl)oxy)-3-methyl-1-oxobutan-2-aminium Chloride]
Solubility ([2]; FaSSIF (pH 6.5)): 3020 µg/mL | Solubility ([2]; Water): 770 µg/mL | AUC0-t [1]: 4500 ng·h/mL | Cmax [1]: 451 ng/mL | t1/2 [1]: 8.2 h

CC(C)(O)[C@@H]1CC[C@@](C)([C@H]2[C@@H](O)C[C@@]3(C)[C@@H]4C[C@H](OC(=O)[C@@H](N)CCCCN)[C@H]5C(C)(C)C(F)(F)CC[C@@]56C[C@@]46CC[C@]23C)O1.Cl.Cl [Compound 2-26, (S)-6-(((2aR,3R,4S,5aS,5bS,7S,7aR,11aR,12aS)-9,9-difluoro-4-hydroxy-3-((2S,5S)-5-(2-hydroxypropan-2-yl)-2-methyltetrahydrofuran-2-yl)-2a,5a,8,8-tetramethyltetradecahydro-1H,12H-cyclopenta[a]cyclopropa[e]phenanthren-7-yl)oxy)-6-oxohexane-1,5-diaminium Chloride]
Solubility ([2]; FaSSIF (pH 6.5)): 6600 µg/mL | Solubility ([2]; Water): 2100 µg/mL

Br.CC(C)(O)C1CCC(C)(C2C(O)CC3(C)C4CC(OC(=O)CNC(=O)C(N)CS)C5C(C)(C)C(F)(F)CCC56CC46CCC23C)O1 [Compound 2-32, (R)-1-((2-(((2aR,3R,4S,5aS,5bS,7S,7aR,11aR,12aS)-9,9-difluoro-4-hydroxy-3-((2S,5S)-5-(2-hydroxypropan-2-yl)-2-methyltetrahydrofuran-2-yl)-2a,5a,8,8-tetramethyltetradecahydro-1H,12H-cyclopenta[a]cyclopropa[e]phenanthren-7-yl)oxy)-2-oxoethyl)amino)-3-mercapto-1-oxopropan-2-aminium bromide]
Solubility ([2]; FaSSIF (pH 6.5)): 4960 µg/mL

Br.CN(CC(=O)O[C@H]1C[C@@H]2[C@]3(CC[C@]4(C)[C@@H]([C@]5(C)CC[C@@H](C(C)(C)O)O5)[C@@H](O)C[C@@]24C)C[C@@]32CCC(F)(F)C(C)(C)[C@H]12)C(=O)[C@H](N)CC(=O)O [Compound 2-33, (R)-3-carboxy-1-((2-(((2aR,3R,4S,5aS,5bS,7S,7aR,11aR,12aS)-9,9-difluoro-4-hydroxy-3-((2S,5S)-5-(2-hydroxypropan-2-yl)-2-methyltetrahydrofuran-2-yl)-2a,5a,8,8-tetramethyltetradecahydro-1H,12H-cyclopenta[a]cyclopropa[e]phenanthren-7-yl)oxy)-2-oxoethyl)(methyl)amino)-1-oxopropan-2-aminium bromide]
Solubility ([2]; FaSSIF (pH 6.5)): 6800 µg/mL | Solubility ([2]; Water): 2100 µg/mL

CC(NC(=O)C(N)CC(N)=O)C(=O)OC1CC2C3(C)CC(O)C(C4(C)CCC(C(C)(C)O)O4)C3(C)CCC23CC32CCC(F)(F)C(C)(C)C12.Cl [Compound 2-34, (S)-4-amino-1-(((S)-1-(((2aR,3R,4S,5aS,5bS,7S,7aR,11aR,12aS)-9,9-difluoro-4-hydroxy-3-((2S,5S)-5-(2-hydroxypropan-2-yl)-2-methyltetrahydrofuran-2-yl)-2a,5a,8,8-tetramethyltetradecahydro-1H,12H-cyclopenta[a]cyclopropa[e]phenanthren-7-yl)oxy)-1-oxopropan-2-yl)amino)-1,4-di oxobutan-2-aminium chloride]
Solubility ([2]; FaSSIF (pH 6.5)): 3200 µg/mL | Solubility ([2]; Water): 1180 µg/mL

C[C@@H](N)C(=O)N[C@H](C)C(=O)O[C@H]1C[C@@H]2[C@]3(CC[C@]4(C)[C@@H]([C@]5(C)CC[C@@H](C(C)(C)O)O5)[C@@H](O)C[C@@]24C)C[C@@]32CCC(F)(F)C(C)(C)[C@H]12.I [Compound 2-35, (R)-1-(((R)-1-(((2aR,3R,4S,5aS,5bS,7S,7aR,11aR,12aS)-9,9-difluoro-4-hydroxy-3-((2 S,5S)-5-(2-hydroxypropan-2-yl)-2-methyltetrahydrofuran-2-yl)-2a,5a,8,8-tetramethyltetradecahydro-1H,12H-cyclopenta[a]cyclopropa[e]phenanthren-7-yl)oxy)-1-oxopropan-2-yl)amino)-1-oxopropan-2-aminium iodide]
Solubility ([2]; FaSSIF (pH 6.5)): 3140 µg/mL | Solubility ([2]; Water): 1350 µg/mL

CC(C)(O)C1CCC(C)(C2C(O)CC3(C)C4CC(OP(=O)([O-])O)C5C(C)(C)C(F)(F)CCC56CC46CCC23C)O1.[Na+] [Compound 3-1, Monosodium Mono((2aR,3R,4S,5aS,5bS,7S,7aR,11aR,12aS)-9,9-difluoro-4-hydroxy-3-((2S,5S)-5-(2-hydroxypropan-2-yl)-2-methyltetrahydrofuran-2-yl)-2a,5a,8,8-tetramethyltetradecahydro-1H,12H-cyclopenta[a]cyclopropa[e]phenanthren-7-yl phosphate)]
Solubility ([2]; FaSSIF (pH 6.5)): 15800 µg/mL | Solubility ([2]; Water): 11500 µg/mL

CC(C)(O)C1CCC(C)(C2C(O)CC3(C)C4CC(OP(=O)(O)O)C5C(C)(C)C(F)(F)CCC56CC46CCC23C)O1.N [Compound 3-2, Ammonium (2aR,3R,4S,5aS,5bS,7S,7aR,11aR,12aS)-9,9-difluoro-4-hydroxy-3-((2S,5S)-5-(2-hydroxypropan-2-yl)-2-methyltetrahydrofuran-2-yl)-2a,5a,8,8-tetramethyltetradecahydro-1H,12H-cyclopenta[a]cyclopropa[e]phenanthren-7-yl phosphate]
Solubility ([2]; FaSSIF (pH 6.5)): 22300 µg/mL | Solubility ([2]; Water): 12600 µg/mL

CC(C)(O)[C@@H]1CC[C@@](C)([C@H]2[C@@H](O)C[C@@]3(C)[C@@H]4C[C@H](OP(=O)(O)O)[C@H]5C(C)(C)C(F)(F)CC[C@@]56C[C@@]46CC[C@]23C)O1 [Compound 11, (2aR,3R,4S,5aS,5bS,7S,7aR,11aR,12aS)-9,9-difluoro-4-hydroxy-3-((2S,5S)-5-(2-hydroxypropan-2-yl)-2-methyltetrahydrofuran-2-yl)-2a,5a,8,8-tetramethyltetradecahydro-1H,12H-cyclopenta[a]cyclopropa[e]phenanthren-7-yl dihydrogen phosphate]
Solubility ([2]; thermodynamic from solid, FaSSIF (pH 6.5), read-out: Solubility): 3200 µg/mL | Solubility ([2]; thermodynamic from solid, Water, read-out: Solubility): 790 µg/mL

(S)-1-(((2aR,3R,4S,5aS,5bS,7S,7aR,11aR,12aS)-9,9-difluoro-4-hydroxy-3-((2S,5S)-5-(2-hydroxypropan-2-yl)-2-methyltetrahydrofuran-2-yl)-2a,5a,8,8-tetramethyltetradecahydro-1H,12H-cyclopenta[a]cyclopropa[e]phenanthren-7-yl)oxy)-1-oxopropan-2-aminium Chloride [Compound 2-17]
AUC0-t [1]: 5222 ng·h/mL | Cmax [1]: 501 ng/mL | t1/2 [1]: 7.8 h

sacubitril valsartan sodium [LCZ696]
left ventricular ejection fraction EF % increased by ([3]; 60 mg/kg, after 28 days of administration): 33.14% | FS % [3, 4]: significantly increased | left ventricular ejection fraction EF % increased by [3, 4]: 45.36% | CO [3, 5]: 30.83 ± 2.77 mL/min | EF [3, 5]: 23.49 ± 3.96% | FS [3, 5]: 9.31 ± 1.8% | HR [3, 5]: 575.58 ± 11.44 times/min | CO [3, 6]: 30.17 ± 1.85 mL/min | EF [3, 6]: 31.27 ± 5.36% | FS [3, 6]: 12.93 ± 2.66% | HR [3, 6]: 531.4 ± 19.6 times/min | CO [3, 7]: 35.4 ± 3.19 mL/min | EF [3, 7]: 22.89 ± 2.06% | FS [3, 7]: 9.24 ± 0.86 % | HR [3, 7]: 553.5 ± 10.76 times/min | CO [3, 8]: 39.02 ± 4.26 mL/min | EF [3, 8]: 34.72 ± 5.06% | FS [3, 8]: 14.76 ± 2.86% | HR [3, 8]: 550.17 ± 12.72 times/min | Cardiac output per minute (CO), day 28 vs day 0 (words) [3, 9]: not statistically significant | Heart rate (HR), day 28 vs day 0 [3, 9]: no significant change | EF, day 28 vs day 0 (words) ([3]; chronic heart failure mice, p<0.0005 (FIG. 8)): significantly increased
